Earlier results as cited in US20220184234A1, “METABOLIC TARGETING OF LOW GRADE TUMORS” (SonalaSense, Inc., priority 2020, published 2022).

Test system: tumor
[1] = all experimental groups (5-ALA and FUS)

## NCC(=O)CCC(=O)O [5-ALA, 5-aminolevulinic acid]
5-ALA only group (no FUS), untreated controls 32±10 mm^3
  normalized tumor volume: 24±6 mm^3
5-ALA, group sonicated at multiple points within the tumor (MP group)
  subjects surviving past 60 days: 50%
[1]
  survival compared to control animals: improved survival
  tumor growth compared to control animals: inhibited tumor growth
rats, 20 mg/kg 5-ALA, sonication at 55.2 W/cm^2 for 20 minutes
  tissue damage: suffered tissue damage
